{"source": "paper PMC12276035", "about": "“Novel Para‐Phenylenediamine‐Based Derivatives as Receptor Tyrosine Kinase‐like Orphan Receptor 1 (ROR1) Inhibitors: An In Vitro Preliminary Characterization” (Chemmedchem, 2025)", "key": {"JeKo‐1 cells [1]": {"tested_on": "JeKo‐1 cells", "assay": "Annexin V‐FITC/PI staining apoptosis, flow cytometry", "assay_type": "cell-based, human", "conditions": "JeKo‐1, 20 μM, 72 h, early and late apoptosis", "text": "This observation aligns with previous studies reporting that ROR1 is highly expressed in B‐cell malignancies, including mantle cell lymphoma, where it plays a crucial role in survival signaling and resistance to apoptosis.^[ [10], [32] ^] Given the higher susceptibility of JeKo‐1 cells to the inhibitor, we selected this model for further apoptotic analysis. However, for completeness, apoptotic data for the SH‐SY5Y cell line are also provided in the Supporting Information (Figure S39, Supporting Information). Specifically, cells were incubated with compounds 17, 20, or 29 (20 μM) for 72 h and a flow cytometry analysis using Annexin V/PI staining was performed. After treatment, a very strong increase in the apoptotic response was observed, in both early and late apoptotic populations compared to the negative control (Figure 4 ). […] These findings are in accordance with the literature and further support the potential of ROR1 inhibition in promoting cell death in mantle cell lymphoma.^[ [33] ^]\nFigure 4 Proapoptotic activity of compounds 17, 20, and 29 (20 μM) on JeKo‐1 cells treated for 72 h. A) Representative flow cytometry plots using Annexin V‐FITC/PI staining for apoptosis. B) Related quantitative analysis is reported. Data are expressed as a percentage of live, apoptotic, and necrotic cells. Results are shown as mean ± standard deviation (SD) from three independent experiments. *** denote p < 0.001 versus Ctrl.\nApoptosis of the cells was assessed using annexin V‐FITC/PI reagents. JeKo‐1 cells (60 × 10^3 cells/well) were seeded into 24‐well plates and incubated for 72 h with compounds (20 and 10 μM). After treatment, the collected cells were resuspended in a 100 μL assay buffer, then 5 Annexin V‐FITC and 1 PI reagents were added following incubation for 20 min at room temperature according to the manufacturer's protocol (Dead Cell Apoptosis Kits with Annexin V for Flow Cytometry, Thermo Fisher Scientific). Cells were analyzed with a Becton Dickinson FACScan flow cytometer using the Cell Quest software, version 4 (Franklin Lakes, NJ, USA).^[ [46] ^]"}, "JeKo‐1 cells [2]": {"tested_on": "JeKo‐1 cells", "assay": "MTT cell viability assay, JeKo‐1", "assay_type": "cell-based", "conditions": "Homo sapiens, cytotoxicity, treated for 72 h, read-out: EC50 ± SD JeKo‐1", "description": "Cytotoxicity studies, assessing the activity of the synthetized compounds, were performed only on the molecules showing the best binding profile in the SPR assay. MTT test was performed on two cell lines known for overexpressing ROR1, particularly MTT assays were conducted on JeKo‐1 (human mantle cell lymphoma) and SH‐SY5Y (neuroblastoma), exposing them to different concentrations of compounds for 72 h (Table 2 ). […] This increased effectiveness is likely due to the high expression of the target protein in leukemia and other hematologic malignancies. […] A key structural difference in 18 and 19 compared to active compounds is the absence of the trifluoromethyl group on the aromatic ring. Indeed, the removal of the trifluoromethyl group (18) or the incorporation of an electron‐donating substituent (19) alters the interaction with the ATP‐binding pocket.\nThe JeKo‐1 mantle cell lymphoma (MCL) cell line, derived from mantle cell lymphoma of B‐cell lineage, was obtained from ATCC and was grown in RPMI supplemented with 10% v/v fetal bovine serum, 2 mM L‐glutamine, 100 U mL^−1 penicillin, and 0.1 mg mL^−1 streptomycin.\nCell viability was established by measuring mitochondrial metabolic activity with MTT. In brief, SH‐SY5Y (20 × 10^3 cells/well) and JeKo‐1 (10 × 10^3 cells/well) were plated into 96‐well plates for 24 h, then the compounds (1.56–50 μM) were added. […], cells were replaced with a fresh medium containing 0.5 mg mL^−1 MTT.^[ [45] ^] Cells were incubated for 1–3 h at 37 °C, then the medium was discarded, and formazan blue crystals in the cells dissolved with 100 μL per well of a solution containing isopropanol/HCl 0.1 M. The absorbance was measured at 570 nm using a microplate reader (Multiskan Go, Thermo Scientific, Waltham, MA, USA). Cell viability was expressed as a percentage relative to the untreated cells cultured in medium with 0.1% DMSO and set to 100%, whereas 10% DMSO was used as positive control and set to 0% of viability. The EC50 values were calculated using GraphPad Prism 8.0 software by nonlinear regression of dose‐response inhibition."}, "[3]": {"assay": "Liver microsomal stability", "assay_type": "in vitro ADME, mouse", "description": "To evaluate the metabolic stability of our hit compound and assess its drug‐likeness, we investigated the microsomal stability of 17 by incubating it with mouse liver microsomes. We monitored the loss of the compound over time under CYP‐mediated metabolic pathways (Figure 7A). The natural logarithm of the percentage remaining of the compound, calculated by comparing the concentration at each time point with the t0 sample, was plotted against time, yielding a linear regression (R ^2 = 0.98).\nThe liver microsomal stability assay of compound 17 was conducted as previously described.^[ [47] ^] Briefly, mouse (CD‐1) liver microsomes (Thermo Fisher Scientific, Bremen, Germany) were used, and the reaction was initiated by the addition of NADPH. The incubation was carried out 37 °C for 15, 30, 45, and 60 min in a Thermomixer comfort (Eppendorf, Hamburg, Germany). The reaction was stopped by the addition of ice‐cold methanol containing IS. Finally, the samples were centrifuged, and the supernatants were injected into the LC‐MS. […] All experiments were performed in triplicate, and results were expressed as the in vitro microsomal half‐life (t 1/2), calculated using the equation t 1/2 = 0.693/b, where b is the slope of the linear regression obtained by plotting the natural logarithm of the remaining parent compound fraction against incubation time."}}}
{"smiles": "O=C(NCc1ccc(-c2ccccc2)cc1)Nc1ccc(NCC2CCNCC2)cc1C(F)(F)F", "note": "[Compound 17]", "values": [{"measurement": "apoptotic cells", "setting": "JeKo‐1 cells [1]", "result": "89.02 ± 3.12", "unit": "%"}, {"measurement": "EC50", "setting": "JeKo‐1 cells [2]", "result": "10.3 ± 2.86", "unit": "µM"}, {"measurement": "degradation", "setting": "[3]; after 60 min with mouse microsomes", "result": "≈ 20%"}, {"measurement": "half-life", "setting": "[3]; mouse (CD‐1) liver microsomes, NADPH, 37 °C", "result": "~3.3", "unit": "h"}]}
